Patent US4451450A, “Cationic compounds useful for making radiodiagnostic agents” (New England Nuclear Corporation, priority 1981, dated 1984)

System: Rabbit Heart
Test: Imaging of rabbit heart (scintillation camera, intravenous injection)
Assay type: in vivo
Conditions: 2 mCi i.v., 2.5 Kg male New Zealand Albino rabbit, approximately 10 minutes after injection
Experimental: 2 mCi of Thallium-201 (as thallous chloride in physiological saline containing 0.9% benzyl alcohol) is injected intravenously into a 2.5 Kg male New Zealand Albino rabbit. The rabbit is positioned under a Searle Pho-Gamma scintillation camera in such a way that the heart and lung area are covered by the field of view.
Greater than 1 mCi of the ^99m Tc-labelled product of Example 3 is injected into a rabbit and imaged as in Example 16.

With Thallium-201 the “image of the heart (reference Tl-201)” value was “sufficient counts are accumulated to produce an image of the heart analogous to that seen in clinical studies of humans”.
